# Source: patent US9220794B2, “Two-photon fluorescent probes for imaging of total sulfide in live cell and tissue, and quantitative estimation of total sulfide concentration using the same” (Korea University Research and Business Foundation, priority 2013, dated 2015)
# Columns and labels:
# HeLa cells [1] = experiment: Two-photon excited fluorescence spectra of labeled HeLa cells; assay type: cell-based, human
# Protocol: Accordingly, it can be seen that HEPES/EtOH (1/1) has polarity similar to that of the cellular environment.
# This confirms again that HEPES/EtOH (1/1) is a good model of the cellular environment and HS^− can be detected by TPM using the compound of [Chemical Formula 2-6].
# HeLa human cervical carcinoma cells were acquired from the ATCC (Manassas, Va., USA). The cells were cultured in DMEM (WelGene, Inc., Seoul, Korea) supplemented with heat-inactivated 10% FBS (WelGene), penicillin (100 units/mL) and streptomycin ([…]).
# For labeling, the growth medium was removed and replaced with DMEM without FBS. The cells were incubated with the compound of [Chemical Formula 2-6] ([…]) for 30 minutes, washed 3 times with FBS-free DMEM and imaged.
# The TPM images were obtained with the DM IRE2 microscope (Leica) by exciting the probes with a mode-locked titanium-sapphire laser source (Coherent Chameleon, 90 MHz, 200 fs) set at a wavelength of 750 nm and an output power of 1380 mW, which corresponded to an average power of approximately 2 mW in the focal plane.
# [2] = pH sensitivity of the fluorescence; assay type: physicochemical; conditions: biologically relevant pH range
# [3] = Measurement of two-photon cross section (fs fluorescence technique, rhodamine 6G reference); assay type: physicochemical; conditions: for Φδmax, two-photon action cross section: uncertainty ±15%
# Protocol: Two-photon cross section (δ) was determined using a femtosecond (fs) fluorescence measurement technique.
# The compound of [Chemical Formula 2-5] and the compound of [Chemical Formula 2-6] were dissolved in 20 mM HEPES buffer (pH 7.2) and 3.0×10^−6 M HEPES/EtOH (1/1) and then two-photon induced fluorescence intensity was measured at 740-940 nm using rhodamine 6G as a reference, whose two-photon property has been well characterized. The two-photon fluorescence intensities of the reference and the compound of [Chemical Formula 2-6] and the compound of [Chemical Formula 2-5] were determined.
# The two-photon cross section was calculated from δ=δr(Ssφrφrcr)/(Srφsφscs). In the equation, the subscripts s and r stand for the sample, i.e., the compound of [Chemical Formula 2-6] and the compound of […], respectively. S denotes the intensity of the signal collected using a CCD detector, φ is the fluorescence quantum yield (measured using coumarin 307 and rhodamine B according to the literature), […] fluorescence collection efficiency, and c is the number density of molecules in solution. δr is the two-photon cross section of the reference molecule.
# HeLa cells [4] = experiment: Kinetic estimation of total sulfide concentration in HeLa cells (TPEF); assay type: cell-based, human
# Protocol: To quantitatively estimate the total sulfide concentration in living cells, the TPEF intensity of HeLa cells labeled with the compound of [Chemical Formula 2-6] was monitored in the absence and presence of Na2S, cysteine (Cys) and glutathione (GSH) with 20-30 minute intervals.
# Since H2S and HS^− are in equilibrium and [H2S]/[HS^−]=[H^+]/Ka=0.794 in HEPES/EtOH (1/1, pH=7.2), it seems appropriate to present the total sulfide concentration ([H2S]+[HS^−]).
# Kinetic experiments in HeLa cells were conducted in the same manner except that TPEF intensities from HeLa cells labeled with the compound of [Chemical Formula 2-6] upon excitation at 750 nm were monitored with 20-30 minute intervals.
# The average TPEF intensities at given time and the SB2/SA1 ratio was obtained by dividing the TPEF intensity of [Chemical Formula 2-6] at 390-450 nm by that of [Chemical Formula 2-5] at 525-650 nm in the HeLa cells (FIG. 1b) were used in the kobs calculation.
# The kobs value was measured at 10 regions of interest (ROIs) from three independent cell lines.
# To evaluate the effect of Na2S, cysteine and GSH, HeLa cells were incubated with the compound of [Chemical Formula 2-6] (2 μM) and then treated with Na2S (100, 300 μM), cysteine (500 μM) and GSH (500 μM) for 30 minutes. The cells were then washed 3 times with FBS-free DMEM and subjected to kinetic measurement.
# [5] = Kinetic studies in solution: reaction of the probe with sulfide
# Description: The reaction between the compound of [Chemical Formula 2-6] […] For example, the compound of [Chemical Formula 2-6] was synthesized from the reaction of the compound of [Chemical Formula 2-5] and HS^−. Also, precipitation of sulfur or sulfide was reported in the reaction between phenyl azide and Na2S.
# This followed pseudo first-order kinetics with kobs=2.89×10^−4 s^−1 (FIG. 1b).
# The k2 value calculated from the slope of the plot was 5.13 M^−1s^−1 (measured in HEPES buffer).
# Reactions of the compound of [Chemical Formula 2-6] (5 μM) with Na2S (100-500 μM) in HEPES buffer or HEPES/EtOH (1/1, pH 7.2) were followed by monitoring of the increase in the fluorescence of the compound of [Chemical Formula 2-5] at 525-650 nm using a luminescence spectrometer.
# The kinetic studies in a TP mode were conducted by the same procedure described above except that the TPEF was collected upon excitation at 750 nm.
# In all cases, the plots of −ln(F^∞2−F2) vs. t were linear with good correlations. The kobs values were obtained from the slopes of the plots and the K2 values were obtained from the slopes of the plots of kobs vs. [HS^−]. [HS^−] was calculated by assuming that all of the Na2S was converted to HS^− and H2S, that is, [Na2S]=[H2S]+[HS^−], and using the relationship [H2S]/[HS^−]=[H^+]/Ka=0.794 in HEPES/EtOH (1/1, pH=7.2).
# HeLa cells [6] = experiment: Cell viability, CCK-8 kit; assay type: cell-based, human; conditions: incubation condition
# [7] = Selectivity for sulfide: ratiometric response (F2/F1) in the presence of various analytes
# Protocol: The ratio of fluorescence intensities (F2/F1) measured at a short wavelength (F1) and a long wavelength (F2) at 0, 60 and 120 min is shown. All the data were obtained at 37° C. in HEPES buffer. Excitation wavelengths for one-photon and two-photon processes were 370 nm (short wavelength) and 750 nm (long wavelength), respectively.
# To test whether the compound of [Chemical Formula 2-6] can selectively detect HS^− over other biologically relevant species, the ratiometric response of the compound of [Chemical Formula 2-6] was determined in the presence of various analytes.
structure (smiles),measurement,setting,value
COCCOCCC1(CCOCCOC)c2cc(NC(=O)OCc3ccc(N=[N+]=[N-])cc3)ccc2-c2ccc(-c3nc4ccccc4s3)cc21 [Chemical Formula 2-6],"λ^flmax, maximum emission in cells",HeLa cells [1],450 nm
same,pH sensitivity,[2],pH-insensitive
same,"λ^(2)max, two-photon maximum",[3]; HEPES,740 nm
same,"Φδmax, two-photon action cross section","[3]; HEPES buffer, 2-6 at 740 nm, 2-5 at 750 nm",0.67 GM
same,"λ^(2)max, two-photon maximum",[3]; HEPES/EtOH (1/1),740 nm
same,increase of action cross section (φδ) in HEPES/EtOH (1/1) versus HEPES buffer,[3]; HEPES/EtOH (1/1) vs HEPES buffer,12 fold
same,"Φδmax, two-photon action cross section","[3]; HEPES/EtOH (1/1), GM = 10^−50 cm^4s/photon",12 GM
same,kobs in labeled HeLa cells,"HeLa cells [4]; HeLa cells labeled with 2-6, no additive",0.0 ± 0.1 s⁻¹
same,total sulfide concentration ([H2S]+[HS^−]) in HeLa cells,"HeLa cells [4]; no additive, probe 2-6",0.0 ± 0.1 µM
same,"k2, second-order rate constant of reaction with HS^−","[5]; HEPES buffer, slope of kobs vs. [HS^−]",5.13 M⁻¹ s⁻¹
same,"k2, second-order rate constant of reaction with HS^−","[5]; HEPES/EtOH (1/1, pH=7.2), calculated using pKa (H2S)=7.10",5.17 M⁻¹ s⁻¹
same,influence of p-dinitrobenzene (electron acceptor) on kobs,[5]; addition of p-dinitrobenzene,not influenced
same,"kobs, pseudo first-order rate constant","[5]; probe 5 μM + 100 μM Na2S, HEPES buffer, 37° C.",0.000289 s⁻¹
same,toxicity (CCK-8 kit),HeLa cells [6],negligible toxicity
same,reactivity toward other biologically relevant species,"[7]; 10 mM GSH, 1 mM Cys, 1 mM 2-ME, RSS, RNS, ROS, Ala, Glu, metal ions",no reactivity
same,increase of relative fluorescence intensity ratio (F2/F1),"[7]; 100 mM Na2S (55.7 mM HS^−), HEPES buffer",110 fold
same,F2/F1 after deazidation,[7]; HEPES buffer,110
same,reactivity toward commercially available GSH,[7]; commercially available GSH,small reactivity
same,reactivity toward purified GSH,[7]; purified GSH,no reactivity
